Reference: patent US5049548A, “Renin-inhibitory di-, tri-, and tetrapeptides” (Merck & Co., Inc., priority 1989, dated 1991)
Square brackets hold non-standard residues; d marks the D form. Peptide text beside a SMILES is read from it. * marks the point of attachment. Sta = CC(C)C[C@H](N)[C@@H](O)CC(=O)O; Isovaleryl = CC(C)CC(=O)*

Molecular target: T1, human plasma renin (Homo sapiens, UniProt P00797)
T1 construct: determined against human plasma renin; from tissue; host or cells: human plasma
T1 sequence (P00797 67-406): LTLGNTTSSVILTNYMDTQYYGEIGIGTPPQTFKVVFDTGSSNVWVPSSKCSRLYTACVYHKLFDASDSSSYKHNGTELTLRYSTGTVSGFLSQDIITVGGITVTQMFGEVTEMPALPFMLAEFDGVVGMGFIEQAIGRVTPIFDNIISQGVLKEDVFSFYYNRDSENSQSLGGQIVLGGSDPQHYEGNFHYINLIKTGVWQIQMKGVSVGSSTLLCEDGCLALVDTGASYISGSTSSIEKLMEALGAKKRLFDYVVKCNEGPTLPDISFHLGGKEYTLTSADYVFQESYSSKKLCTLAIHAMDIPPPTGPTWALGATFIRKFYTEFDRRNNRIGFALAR
Assay: Renin-inhibitory potency against human plasma renin
Format: biochemical
Conditions: not given
Description: Renin-inhibitors potencies were determined against human plasma renin and are expressed as IC50 values.

| IC50 | Compound |
| --- | --- |
| 1.4 nM | N^α -(Quinuclidin-3(S)-yl)Phe-His-Cal[CH(OH)CH2 ]Val-NH-n-butyl [Example 27] |
| 2 nM | N^α -(Quinuclidin-3-yl)Phe-His-ACHPA-Ile-NHCH2 (pyridin-4-yl) [Example 24] |
| 7 nM | N^α -[(pyridin-2-yl)methyl]Phe-His-ACHPA-Ile-NHCH2 (pyridin-4-yl) [Example 31] |
| 1.7 nM | [N^α -(N-Methylquinuclidin-3(S)-yl)Phe-His-ACHPA-Ile-NH-CH2 -(pyridin-4-yl)]^+ I^- [Example 23] |

| Compound | IC50 |
| --- | --- |
| CCCC[C@H](NC(=O)[C@H](Cc1ccccc1)N[C@@H]1CN2CCC1CC2)C(=O)N[C@@H](CC1CCCCC1)[C@@H](O)CC(=O)N[C@H](C(=O)NCc1ccncc1)[C@@H](C)CC [Example 20, N^α -(quinuclidin-3-yl)Phe-Nle-ACHPA-Ile-AMP] | 5 nM |
| CCCC[C@H](NC(=O)[C@H](Cc1ccccc1)N(C)[C@@H]1CN2CCC1CC2)C(=O)N[C@@H](CC1CCCCC1)[C@@H](O)CC(=O)N[C@H](C(=O)NCc1ccncc1)[C@@H](C)CC [Example 21, N^α -Methyl-N^α -(quinuclidin-3(S)-yl)Phe-Nle-ACHPA-Ile-NHCH2 (pyridin-4-yl)] | 150 nM |
| CCCC[C@H](NC(=O)[C@H](Cc1ccccc1)N[C@@H]1CN2CCC1CC2)C(=O)N[C@@H](CC1CCCCC1)[C@@H](O)C(=O)OCC [Example 30, N^α -(Quinuclidin-3(S)-yl)Phe-Nle-norACHPA-OEt] | 91 nM |

Test system: hog renin
Assay: not given
Conditions: after the injection of hog renin into nephrectomized rats; cited from earlier work

| Compound | blood pressure in vivo |
| --- | --- |
| CC(C)CC(=O)N[C@H](C(=O)N[C@H](C(=O)N[C@@H](CC(C)C)[C@@H](O)CC(=O)N[C@@H](C)C(=O)N[C@@H](CC(C)C)[C@@H](O)CC(=O)O)C(C)C)C(C)C [pepstatin] (Isovaleryl-VV[Sta]A[Sta]-OH) | reduces blood pressure in vivo |
